Data reported in patent US9573907B2, “2, 4-pyrimidine derivatives and use thereof” (SNU R&DB FOUNDATION, priority 2009, dated 2017).
“Also recorded” adds a separate entry of the source.

How the values were obtained:
[1] = molecular target: interaction of gp96 and AIMP1 (Mus musculus, UniProt P08113); experiment: ELISA assay of gp96-AIMP1 interaction; format: binding, murine
Protocol: FIGS. 1 to 9 represent suppression of cell surface gp96 by GPM1 reduces DC maturation and B220^+ population in gp96tm transgenic mice. (FIG. 1) Chemical structure of GPM1 (Formula 2) and negative control (NC1, Formula 16) used in this study. (FIG. 2) The dose-dependent effect of GPM1 or NC1 on the AIMP1-gp96 interaction using ELISA method as described. The indicated concentrations of the two compounds and biotin-conjugated murine gp96 were added to AIMP1 coated on the surface of microtiter wells, and gp96 bound to AIMP1 was detected with strepavidin-conjugated peroxidase. (FIG. 3) The binding of GPM1 to gp96 was examined by surface plasmon resonance (SPR). GPM1 at the indicated concentrations was injected to immobilized gp96 and the binding was measured using Biacore 3000. The response data were processed using data from a reference surface and buffer injections. Each concentration was tested in triplicate. (FIG. 4) RAW24.7 cells were treated with 10 μM GPM1 for 24 h. Cell lysates were immunoprecipitated with control IgG or anti-gp96 antibody and the immunoprecipitated proteins were immunoblotted with anti-KDELR1, antiAIMP1 and gp96 antibodies. WCL means whole cell lysate. (FIG. 5) Splenocytes isolated from C57BL/6 mice were treated with vehicle (5% DMSO in PBS), GPM1, or NC1 (10 μM, 24 h), stained for cell surface gp96, and followed by flow cytometry. (FIG. 6) AIMP1^+/+ or AIMP1^−/− mouse splenocytes (2×10^5 cells) were treated with vehicle, GPM1, or NC1 (10 μM, 24 h), fixed, and then co-cultured with WT bone marrow-derived DCs (1×10^4 cells) for 16 h. TNFα secreted from BMDCs was quantified by ELISA. (FIG. 7) Percentage of gp96^+ MHC class II^+ cell population in splenocytes from gp96tm transgenic female mice treated with vehicle (control) (n=9), GPM1 (n=9), and dexamethasone (n=7) at 30 mg/kg. (FIG. 8) Cell surface ICOSL of CD11b^+CD11c^+ (myeloid DCs), CD11b^−CD11c^+ (lymphoid DCs), and CD11b^+CD11c^− (macrophages) cell populations in splenocytes from gp96tm transgenic female mice treated with vehicle (n=9) and GPM1 (n=9) at 30 mg/kg. (FIG. 9) Percentage of B220^+, MHC class II^+, CD4^+, CD8^+, CD4 and CD8 double negative cell populations in splenocytes from gp96tm transgenic female mice treated with vehicle (n=9), GPM1 (n=9), and dexamethasone (n=7) at 30 mg/kg. Student t-test P values comparing GPM1-treated mice with control are indicated.
96-well plates (Maxisorp., F96; Nunc) were coated with 500 ng/well AIMP1 in PBS (pH 7.4). After washing, the remaining sites were blocked with PBS containing 1% BSA for 1 h. Binding of 10 ng/well biotin-conjugated gp96 was performed in Tris buffer (25 mM Tris, 10 mM NaCl and 0.4% Triton X-100). Each of the 6,580 compounds was added to the well at 100 nM and the plates were washed and incubated with HRP conjugated streptavidin in PBS containing 0.1% BSA and 0.1% Tween 20 for 30 min. The plates were washed, and then substrate was added to each well. The absorbance was monitored at 450 nm.
To identify chemicals that can affect membrane translocation of gp96, the present inventors employed the interaction of gp96 with AIMP1 as the screening target. For this screening, the present inventors chose 6,482 chemicals with different pharmacophore representing 150,000 different chemicals deposited in Korea Chemical Bank and identified the compounds that can inhibit the interaction of the two proteins. For the screening, the present inventors set up a modified ELISA method using recombinant AIMP1 and gp96 proteins as described in Experimental methods. Each of the tested compounds gave different effect on the interaction of the two proteins (FIG. 19). And the present inventors have selected 12 compounds that inhibited the interaction more than 95% of the control at 0.1 μM (Table 1). The present inventors obtained 1251 additional compounds derived from these 12 initial hits and tested them again for their activities against the gp96-AIMP1 interaction.

[2] = test system: cell surface gp96 of splenocytes isolated from C57BL/6 mice; experiment: Flow cytometry of cell surface gp96 on splenocytes; format: cell-based; conditions: 10 μM, 24 h
Protocol: FIGS. 1 to 9 represent suppression of cell surface gp96 by GPM1 reduces DC maturation and B220^+ population in gp96tm transgenic mice. (FIG. 1) Chemical structure of GPM1 (Formula 2) and negative control (NC1, Formula 16) used in this study. (FIG. 2) The dose-dependent effect of GPM1 or NC1 on the AIMP1-gp96 interaction using ELISA method as described. The indicated concentrations of the two compounds and biotin-conjugated murine gp96 were added to AIMP1 coated on the surface of microtiter wells, and gp96 bound to AIMP1 was detected with strepavidin-conjugated peroxidase. (FIG. 3) The binding of GPM1 to gp96 was examined by surface plasmon resonance (SPR). GPM1 at the indicated concentrations was injected to immobilized gp96 and the binding was measured using Biacore 3000. The response data were processed using data from a reference surface and buffer injections. Each concentration was tested in triplicate. (FIG. 4) RAW24.7 cells were treated with 10 μM GPM1 for 24 h. Cell lysates were immunoprecipitated with control IgG or anti-gp96 antibody and the immunoprecipitated proteins were immunoblotted with anti-KDELR1, antiAIMP1 and gp96 antibodies. WCL means whole cell lysate. […] TNFα secreted from BMDCs was quantified by ELISA. […]

HL-60 cell lines = experiment: FACS analysis of gp96 on cell surface of HL-60 cell lines; format: cell-based; conditions: 1 mM, 24 hours
Protocol: FIG. 35 is a graph showing an FACS analysis result using gp96 antibody, on the amount of gp96 protein existing on a cell surface, when HL-60 cell lines were treated with a 2,4-pyrimidine derivatives at a concentration of 1 mM for 24 hours.
Also, HL-60 cell lines were treated with a 2,4-pyrimidine derivative at a concentration of 1 mM for 24 hours, and the amount of gp96 protein existing on a cell surface was analyzed through flow cytometry (FACS) using gp96 antibody.

interaction of gp96 and AIMP1, sequence (P08113 22-802): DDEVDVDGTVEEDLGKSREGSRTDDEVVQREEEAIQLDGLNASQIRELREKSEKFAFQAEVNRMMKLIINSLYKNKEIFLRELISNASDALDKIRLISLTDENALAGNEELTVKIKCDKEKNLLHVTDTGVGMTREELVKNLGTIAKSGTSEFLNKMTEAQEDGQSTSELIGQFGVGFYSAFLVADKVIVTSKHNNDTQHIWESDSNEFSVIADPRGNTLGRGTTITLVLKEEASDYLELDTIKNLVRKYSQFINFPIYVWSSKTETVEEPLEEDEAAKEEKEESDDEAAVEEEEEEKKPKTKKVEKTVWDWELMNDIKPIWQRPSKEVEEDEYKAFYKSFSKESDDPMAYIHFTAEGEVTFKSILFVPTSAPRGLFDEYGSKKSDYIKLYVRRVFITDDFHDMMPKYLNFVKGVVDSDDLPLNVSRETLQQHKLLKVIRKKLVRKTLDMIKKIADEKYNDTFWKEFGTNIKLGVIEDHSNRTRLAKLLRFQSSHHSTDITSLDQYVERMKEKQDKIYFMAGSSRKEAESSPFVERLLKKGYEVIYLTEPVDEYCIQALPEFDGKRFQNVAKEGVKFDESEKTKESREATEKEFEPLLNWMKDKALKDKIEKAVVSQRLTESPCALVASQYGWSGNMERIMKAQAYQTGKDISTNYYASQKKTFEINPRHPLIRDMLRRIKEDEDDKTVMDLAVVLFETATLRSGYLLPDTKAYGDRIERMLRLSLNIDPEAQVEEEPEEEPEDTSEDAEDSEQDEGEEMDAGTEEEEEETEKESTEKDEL

Molecule | amount of gp96 protein existing on a cell surface (HL-60 cell lines) | also measured
COc1cc(OC)nc(OC(Cc2ccccc2)C(=O)O)n1 (stereo not drawn) [NC1, 2-(4,6-dimethoxypyrimidin-2-yloxy)-3-phenylpropanoic acid, reference compound] | – | inhibition on the interaction of gp96 and AIMP1 [1]: 4%; dose-dependent effect on the interaction of gp96 and AIMP1 ([1]; ELISA): no effect; surface gp96 of mouse splenocytes [2]: not
CCCCNC(=O)C(Oc1nc(OC)cc(OC)n1)c1ccccc1 (stereo not drawn) [KR-S-020, N-Butyl-2-(4,6-dimethoxy-pyrimidin-2-yloxy)-2-phenyl-acetamide] | better effects than KR-S-015 | –
2-(4,6-dimethoxy-pyrimidin-2-yloxy)-N-isopropyl-3-methyl-butyl amide [KR-S-005] | better effects than KR-S-015; also recorded: better than ester (KR-S-010) or acid (KR-S-009) | –
COC(=O)CC(C)Oc1nc(OC)cc(OC)n1 [KR-S-014, D-3-(4,6-Dimethoxy-pyrimidin-2-yloxy)-butyric acid methyl ester] | better effects than KR-S-015 | –
COC(=O)[C@H](C)Oc1nc(OC)cc(OC)n1 [KR-S-011, L-2-(4,6-Dimethoxy-pyrimidin-2-yloxy)-propionic acid methyl ester] | better effects than KR-S-015; also recorded: better than isopropyl (KR-S-009, KR-S-010) | –
COc1cc(OC)nc(O[C@@H](C)C(=O)O)n1 [KR-S-024, L-2-(4,6-Dimethoxy-pyrimidin-2-yloxy)-propionic acid] | better effects than KR-S-015; also recorded: better than isopropyl (KR-S-009, KR-S-010) | –
COc1cc(OC)nc(OC(C(=O)N(C)OC)C(C)C)n1 (stereo not drawn) [KR-S-006, 2-(4,6-dimethoxy-pyrimidin-2-yloxy)-N-methoxy-3,N-dimethyl-butyl amide] | better effects than KR-S-015; also recorded: better than ester (KR-S-010) or acid (KR-S-009) | –
